Laboratory results: patent US20030027981A1, “Urokinase-type plasminogen activator receptor” (priority 1989, published 2003)

Test system: cell-bound pro-u-PA
Assay: Pro-u-PA index of cell-bound u-PA on HT-1080 cells (immunocapture assay with NPGB step)
Assay type: cell-based, human
Details: for Pro-u-PA index (%): 2 h, serum medium, all with Plg 40 μg/ml, aprotinin (200 KIU/ml), anti-Plg-1 (20 μg/ml), TA (100 μM) rows also with anti-PAI-1 10 μg/ml
Description: FIG. 27. Activation of cell-bound u-PA proenzyme in serum medium after the addition of plasminogen. Confluent layers of HT-1080 cells were incubated with MEM medium containing 10% heat-inactivated and plasminogen-depleted fetal calf serum and native human plasminogen (40 μg/ml). After the time intervals shown, aprotinin (200 KIU/ml) was added and the rinsed cells were treated with acid-glycine to recover the bound fraction of u-PA. The u-PA in the neutralized eluate was assayed by an immunocapture method, using an NPGB inactivation step to determined the pro-u-PA index (see Methods).
Cell culture supernatants were assayed for pro-u-PA and active u-PA by the following modification of an immunocapture method (Stephens et al., 1988; Stephens et al., 1987). Microtitre wells of polystyrene immunoplates (type 269620, A/S Nunc, Roskilde, Denmark) were coated overnight at 37° C. with 50 μl of a solution of goat IgG antibodies to human u-PA (cat. #398, American Diagnostica). The coating solution contained 2.5 μg of IgG per ml of […] sodium carbonate (pH 9.8). After rinsing, the wells were treated with conditioned medium ([…]) for 2 hours at 23° C., then rinsed again. Half the wells were then treated with 50 μl of freshly prepared 2 μM p-nitrophenyl guanidinobenzoate (NPGB, Sigma) (Danø, K., and E. Reich, “Plasminogen activator from cells transformed by an oncogenic virus—Inhibitors of the activator reaction”, Biochim. Biophys. Acta 566: 138-151, 1979) for 20 minutes at 37° C. The other half (controls) received 50 μl of rinsing buffer (0.05% Tween 20 in PBS). After rinsing, u-PA was assayed in all the wells by addition of 40 μl of plasminogen solution (100 μg/ml in assay buffer consisting of 50 mM sodium glycinate (pH 7.8), 0.1% Triton X-100, 0.1% gelatin and 10 mM 6-aminocaproic acid which also contained a very low concentration of plasmin (10 ng/ml)), and incubation took place for 30 minutes at 37° C. This concentration of plasmin in the plasminogen incubation was sufficient to enable full realization of the potential activity of pro-u-PA (cf. Petersen et al., 1988). […] This mixture was incubated for 30 minutes at 37° C., and the absorbancies of the wells were read at 405 nm. […]
Pro-u-PA and active u-PA bound to the cell layer were recovered for immunocapture assays by the same method as was used in the metabolic labelling (see above). […] For conditioned medium and cell-bound u-PA, the u-PA activity assayed after NPGB treatment was expressed as a percentage of the total activity obtained without NPGB treatment, and this percentage used as an index of pro-u-PA content (pro-u-PA index). […]

Molecule | Pro-u-PA index (%) | Proportion of total surface-bound u-PA present as pro-u-PA (cells incubated with human plasminogen 40 μg/ml in serum medium, plasminogen-free cultures approximately 90%)
NC[C@H]1CC[C@H](C(=O)O)CC1 [TA, tranexamic acid] | 88% | –
Plg: native human plasminogen (glutamic acid N-terminal) purified from human plasma on lysine-Sepharose | 50% | approximately 10%
aprotinin | 93% | –
